Results as given in US7872052B2, “Use of heterocyclic compounds as SCCE inhibitors” (Arexis AB, priority 2003, dated 2011).

Target: T1, Recombinant active human SCCE (Homo sapiens, UniProt P49862)
T1 construct: made in house; host or cells: murine C127 cells transfected with a BPV vector (murine MT promoter)
Assay: SCCE Inhibitor Test (chromogenic substrate S-2586, absorbance at 405 nm)
Type: biochemical
Conditions: for IC50: 10 min preincubation, 1 mM S-2586, 60 min, 37° C, pH 7.2; for remaining activity at 10 µM / remaining activity at 1 µM / remaining activity at 5 µM: 1 h; for remaining activity at 1 µM: 1 μM compound; for remaining activity at 5 µM: 5 μM compound
Experimental: Recombinant active human SCCE was produced essentially as described in WO 95/00651. The cDNA encoding human SCCE was introduced into a BPV vector under the control of the murine MT promoter and expressed in transfected C127 cells. The produced SCCE was purified and activated using immobilized bovine trypsin.
SCCE activity was determined using the chromogenic substrate S-2586 (MeO-Suc-Arg-Pro-Tyr-pNA) (Chromogenix, Mölndal, Sweden) by measurement of the change in absorbance at 405 nm essentially as described in WO 95/00651. Inhibitors were dissolved in DMSO and added to the reaction mixture (10 mM sodium phosphate, pH 7.2, 0.5 M NaCl, 2.5 μg/ml SCCE) at appropriate concentrations followed by incubation for 10 min before the start of the enzymatic reaction by subsequent addition of the substrate S-2586 to a final concentration of 1 mM. The change in absorbance at 405 nm after 60 min was recorded and used as a measure of SCCE activity. The assay temperature was 37° C. […] The IC50 values were used to identify compounds as SCCE inhibitors of the invention.

T1 sequence (P49862 30-253): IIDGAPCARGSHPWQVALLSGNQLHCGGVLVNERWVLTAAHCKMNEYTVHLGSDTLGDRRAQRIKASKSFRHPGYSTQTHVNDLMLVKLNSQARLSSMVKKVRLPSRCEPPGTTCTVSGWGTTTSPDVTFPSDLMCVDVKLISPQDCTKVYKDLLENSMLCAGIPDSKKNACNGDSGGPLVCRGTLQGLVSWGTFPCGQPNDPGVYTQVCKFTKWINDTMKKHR

Compound | IC50 | remaining activity at 10 µM (10 μM compound) | remaining activity at 1 µM | remaining activity at 5 µM | % SCCE activity (10 μM compound)
O=c1oc(-c2ccccc2)nc2ccccc12 [Compound I-1, 2-Phenyl-benzo[d][1,3]oxazin-4-one] | 2 µM | 27% |  |  | 
O=c1oc(-c2ccc([N+](=O)[O-])cc2Cl)nc2cc(Cl)ccc12 [Compound I-2, 7-Chloro-2-(2-chloro-4-nitro-phenyl)-benzo[d][1,3]oxazin-4-one] | 0.1 µM |  | 15% | 0% | 
O=c1oc(-c2cccs2)nc2cc(Cl)ccc12 [Compound I-4, 7-Chloro-2-thiophen-2-yl-benzo[d][1,3]oxazin-4-one] | 0.25 µM |  | 22% | 5% | 
COc1cc2nc(-c3ccc([N+](=O)[O-])cc3Cl)oc(=O)c2cc1OC [Compound I-5, 2-(2-Chloro-4-nitro-phenyl)-6,7-dimethoxy-benzo[d][1,3]oxazin-4-one] | 0.5 µM | 9% |  |  | 
O=c1oc(-c2cc([N+](=O)[O-])ccc2Cl)nc2ccccc12 [Compound I-6, 2-(2-Chloro-5-nitro-phenyl)-benzo[d][1,3]oxazin-4-one] | 0.5 µM | 22% |  |  | 
CN(C)c1nc2cc(Cl)cc(Cl)c2c(=O)o1 [Compound I-7] | 2 µM |  |  |  | 7%
O=c1oc(-c2ccncc2)nc2ccccc12 [Compound I-8, 2-Pyridin-4-yl-benzo[d][1,3]oxazin-4-one] | 5 µM | 24% |  |  | 
O=c1oc(-c2cccs2)nc2ccccc12 [Compound I-9, 2-Thiophen-2-yl-benzo[d][1,3]oxazin-4-one] | 5 µM | 23% |  |  | 
O=c1oc(-c2ccccc2O)nc2ccccc12 [Compound I-10, 2-(2-Hydroxy-phenyl)-benzo[d][1,3]oxazin-4-one] | 5 µM | 32% | 71% | 47% | 
COc1cc2nc(-c3ccccc3F)oc(=O)c2cc1OC [Compound I-11, 2-(2-Fluoro-phenyl)-6,7-dimethoxy-benzo[d][1,3]oxazin-4-one] | 0.7 µM |  | 39% | 8% | 
CCc1ccc(-c2nc3cc(Cl)ccc3c(=O)o2)cc1 [Compound I-12, 7-Chloro-2-(4-ethyl-phenyl)benzo[d][1,3]oxazin-4-one] | 2 µM |  | 33% | 15% | 
Cc1cc(-c2nc3cc(Cl)ccc3c(=O)o2)ccc1[N+](=O)[O-] [Compound I-13, 7-Chloro-2-(3-methyl-4-nitro-phenyl)-benzo[d][1,3]oxazin-4-one] | 2 µM |  | 56% | 36% | 
COc1cc2nc(-c3ccc(NC(C)=O)cc3)oc(=O)c2cc1OC [Compound I-14, N-[4-(6,7-Dimethoxy-4-oxo-4H-benzo[d][1,3]oxazin-2-yl)-phenyl]-acetamide] | 5 µM | 52% |  |  | 
CC(=O)Oc1ccc(-c2nc3ccccc3c(=O)o2)cc1 [Compound I-15, Acetic acid 4-(4-oxo-4H-benzo[d][1,3]oxazin-2-yl)-phenyl ester] | 5 µM |  | 52% | 22% | 
COc1cc2nc(-c3ccccc3Cl)oc(=O)c2cc1OC [Compound I-16, 2-(2-Chloro-phenyl)-6,7-dimethoxy-benzo[d][1,3]oxazin-4-one] | 0.17 µM | 3% | 15% |  | 
O=c1nc(-c2cccs2)oc2ccc(Cl)cc12 [Compound I-17, 6-Chloro-2-thiophen-2-yl-benzo[e][1,3]oxazin-4-one] | 0.32 µM |  | 18% | 4% | 
O=c1nc(-c2ccco2)oc2ccc(Cl)cc12 [Compound I-18, 6-Chloro-2-furan-2-yl-benzo[e][1,3]oxazin-4-one] | 0.6 µM |  | 26% | 7% | 
O=c1nc(-c2ccccc2Cl)oc2ccccc12 [Compound I-19, 2-(2-Chlorophenyl)-benzo[e][1,3]oxazin-4-one] | 4 µM |  | 76% | 44% | 
O=c1nc(-c2cccs2)oc2ccccc12 [Compound I-20, 2-Thiophen-2-yl-benzo[e][1,3]oxazin-4-one] |  |  | 54% | 16% | 
O=c1nc(-c2ccco2)oc2ccccc12 [Compound I-21, 2-Furan-2-yl-benzo[e][1,3]oxazin-4-one] |  |  | 47% | 16% | 

Compound | IC50 | remaining activity at 10 µM (10 μM compound) | remaining activity at 1 µM | remaining activity at 5 µM | % SCCE activity (10 μM compound)
CCc1cc2c(=O)oc(-c3ccccc3F)nc2s1 [II-1, 6-Ethyl-2-(2-fluoro-phenyl)-thieno[2,3-d][1,3]oxazin-4-one] | 0.07 µM |  | 0% | 0% | 
Cc1cc2c(=O)oc(-c3cccc4ccccc34)nc2s1 [II-2, 6-Methyl-2-naphtalen-1-yl-thieno[2,3-d][1,3]oxazin-4-one] | 0.05 µM | 4% |  |  | 
CCc1cc2c(=O)oc(-c3ccccc3C)nc2s1 [II-3, 6-Ethyl-2-o-tolyl-thieno[2,3-d][1,3]oxazin-4-one] | 0.15 µM |  | 3% | 0% | 
CCc1cc2c(=O)oc(-c3ccc(F)cc3)nc2s1 [II-4, 6-Ethyl-2-(4-fluoro-phenyl)-thieno[2,3-d][1,3]oxazin-4-one] | 0.3 µM |  | 15% | 8% | 
O=c1oc(-c2ccccc2Cl)nc2ccsc12 [II-5, 2-(2-chloro-phenyl)-4H-thieno[3,2-d][1,3]oxazin-4-one] | 0.5 µM | 1% |  |  | 
O=c1oc(-c2ccccc2)nc2ccsc12 [II-6, 2-phenyl-4H-thieno[3,2-d][1,3]oxazin-4-one] | 1 µM | 9% |  |  | 
Cc1sc2nc(-c3ccco3)oc(=O)c2c1C [II-7, 2-Furan-2-yl-5,6-dimethyl-thieno[2,3-d][1,3]oxazin-4-one] | 1.5 µM |  | 50% | 13% | 
O=c1oc(-c2ccc(F)cc2)nc2ccsc12 [II-8, 2-(4-fluoro-phenyl)-4H-thieno[3,2-d][1,3]oxazin-4-one] | 1 µM | 10% |  |  | 
CCc1cc2c(=O)oc(-c3ccc(Br)cc3)nc2s1 [II-9, 2-(4-Bromo-phenyl)-6-ethyl-thieno[2,3-d][1,3]oxazin-4-one] | 1 µM |  | 58% | 37% | 
O=c1oc(-c2ccccc2Cl)nc2sc3c(c12)CCC3 [II-10, 6-(2-Chloro-phenyl)-2,3-dihydro-1H-5-oxa-8-thia-7-aza-cyclopenta[a]indene-4-one] | 0.02 µM |  | 10% | 2% | 
O=c1oc(-c2ccco2)nc2sc3c(c12)CCC3 [II-11, 6-Furan-2-yl-2,3-dihydro-1H-5-oxa-8-thia-7-aza-cyclopenta[a]inden-4-one] | 0.2 µM |  | 8% | 8% | 
O=c1oc(-c2ccccc2)nc2sc3c(c12)CCC3 [II-12, 6-Phenyl-2,3-dihydro-1H-5-oxa-8-thia-7-aza-cyclopenta[a]inden-4-one] | 0.2 µM |  | 19% | 16% | 
O=c1oc(-c2ccc(F)cc2)nc2sc3c(c12)CCC3 [II-13, 6-(4-Fluoro-phenyl)-2,3-dihydro-1H-5-oxa-8-thia-7-aza-cyclopenta[a]inden-4-one] | 0.3 µM |  | 37% | 14% | 
O=c1oc(-c2cccs2)nc2sc3c(c12)CCC3 [II-14, 6-Thiophen-2-yl-2,3-dihydro-1H-5-oxo-8-thia-7-aza-cyclopenta[a]inden-4-one] | 0.3 µM |  | 37% | 21% | 
O=c1oc(-c2ccccc2F)nc2sc3c(c12)CCCC3 [II-15, 2-(2-Fluoro-phenyl)-5,6,7,8-tetrahydro-3-oxa-9-thia-1-aza-fluoren-4-one] | 0.07 µM |  | 7% | 2.4% | 
COc1ccccc1-c1nc2sc3c(c2c(=O)o1)CCCC3 [II-16, 2-(2-Methoxy-phenyl)-5,6,7,8-tetrahydro-3-oxa-9-thia-1-aza-fluoren-4-one] | 0.07 µM |  | 2.7% | 0% | 
O=c1oc(-c2ccccc2)nc2sc3c(c12)CCCC3 [II-17, 2-Phenyl-5,6,7,8-tetrahydro-3-oxa-9-thia-1-aza-fluoren-4-one] | 0.7 µM |  | 45% | 33% | 
O=c1oc(-c2cccc3ccccc23)nc2sc3c(c12)CCCC3 [II-18, 2-Naphtalen-1-yl-5,6,7,8-tetrahydro-3-oxa-9-thia-1-aza-fluoren-4-one] | 1 µM |  | 38% | 41% | 
O=c1oc(-c2cccs2)nc2sc3c(c12)CCCC3 [II-19, 2-Thiophen-2-yl-5,6,7,8-tetrahydro-3-oxa-9-thia-1-aza-fluoren-4one] | 1 µM |  | 52% | 41% | 
